{
  "source": "paper PMC11425624",
  "about": "“Synthesis of Novel Cu(II), Co(II), Fe(II), and Ni(II) Hydrazone Metal Complexes as Potent Anticancer Agents: Spectroscopic, DFT, Molecular Docking, and MD Simulation Studies” (ACS Omega, 2024)",
  "key": {"[1]": {"assay": "Dissolution in cytotoxicity assay medium (0.5% DMSO, DMEM)", "assay_type": "physicochemical", "excerpt": "When the ligand and L-Cu were compared, the cytotoxic effect of L-Cu was almost 17 times more cytotoxic than that of the ligand, including 2-hydroxybenzylidene and 4-fluorobenzohydrazide groups. […] However, the effect of the other two metal complexes (L-Co and L-Fe) and the ligand used as the starting material on the growth of A549 cells was very low compared to that of the positive control drug."}, "[2]": {"tested_on": "A549", "assay": "MTT cytotoxic activity assay, A549 cells, 72 h", "assay_type": "cell-based, human", "settings": "for IC50: A549 human lung cancer cell line, MTT", "procedure": "(§1) The complexes were tested in human lung cancer and normal embryonic kidney cell lines for 72 h.\nThe MTT stock solution (50 μL, 5 mg/mL) was added to each well. Absorbance was measured using an Epoch 2 ELISA plate reader at 590 nm. The IC50 values were calculated using GraphPad Prism Software version 5."}, "[3]": {"tested_on": "HEK-293T", "assay": "MTT cytotoxic activity assay, HEK-293T cells, 72 h", "assay_type": "cell-based", "settings": "HEK-293T healthy human embryonic kidney cell line", "procedure": "as §1\nCytotoxic activity studies of compounds (L, L-Cu, L-Co, and L-Fe) were conducted according to the literature.[60] Human lung epithelial carcinoma cells (A549; ATCC CCL-185) and healthy human embryonic kidney cells (HEK-293T) were cultured in Dulbecco’s modified Eagle’s medium-high-glucose supplemented with 10% fetal bovine serum and 1% GlutaMAX in a CO2 incubator at 37 °C. Cells seeded in 96-well plates were exposed to 200, 100, 50, and 25 μM of compounds for 72 h. The MTT stock solution (50 μL, 5 mg/mL) was added to each well. Absorbance was measured using an Epoch 2 ELISA plate reader at 590 nm. The IC50 values were calculated using GraphPad Prism Software version 5."}, "[4]": {"settings": "A549, 50 μM concentration of compound, 72 h"}, "[5]": {"settings": "A549, 200 μM concentration of compound, 72 h"}},
  "data": [
    {"smiles": "O.O=C(NN=Cc1ccccc1[O-])c1ccc(F)cc1.O=C(NN=Cc1ccccc1[O-])c1ccc(F)cc1.[Ni+2]", "note": "[L-Ni]", "values": [
      {"measurement": "Solubility in assay medium", "setting": "[1]", "value": "not fully dissolved in 0.5% DMSO and was precipitated in DMEM"}
    ]},
    {"smiles": "O=C(NN=Cc1ccccc1O)c1ccc(F)cc1", "note": "[L, 4-Fluoro-N′-(2-hydroxybenzylidene)benzohydrazide]", "values": [
      {"measurement": "IC50", "setting": "[2]; 72 h", "value": 36.7, "unit": "µM"},
      {"measurement": "viability at 50 µM", "setting": "[2]; Homo sapiens, A549, 50 μM concentration of compound, 72 h, read-out: Cell viability", "value": 44.9, "unit": "%"},
      {"measurement": "viability at 200 µM", "setting": "[2]; Homo sapiens, A549, 200 μM concentration of compound, 72 h, read-out: Cell viability rate", "value": 8.51, "unit": "%"},
      {"measurement": "IC50", "setting": "[3]", "value": 18.2, "unit": "µM"}
    ]},
    {"smiles": "N.N.[Cl][Pt][Cl]", "note": "[cisplatin, reference compound]", "values": [
      {"measurement": "IC50", "setting": "[2]; 72 h", "value": 4.23, "unit": "µM"},
      {"measurement": "IC50", "setting": "[3]", "value": 2.62, "unit": "µM"}
    ]},
    {"smiles": "O=C(NN=Cc1ccccc1[O][Fe][O]c1ccccc1C=NNC(=O)c1ccc(F)cc1)c1ccc(F)cc1", "note": "[L-Fe]", "values": [
      {"measurement": "Cell viability", "setting": "[2]; [4]", "value": 92.96, "unit": "%"},
      {"measurement": "Cell viability rate", "setting": "[2]; [5]", "value": 5.72, "unit": "%"},
      {"measurement": "IC50", "setting": "[2]; 72 h", "value": 78.8, "unit": "µM"},
      {"measurement": "IC50", "setting": "[3]", "value": 69.2, "unit": "µM"}
    ]},
    {"smiles": "O=C(NN=Cc1ccccc1[O][Cu][O]c1ccccc1C=NNC(=O)c1ccc(F)cc1)c1ccc(F)cc1", "note": "[L-Cu]", "values": [
      {"measurement": "Cell viability", "setting": "[2]; [4]", "value": 5.10, "unit": "%"},
      {"measurement": "Cell viability rate", "setting": "[2]; [5]", "value": 4.66, "unit": "%"},
      {"measurement": "Effectiveness relative to cisplatin", "setting": "[2]; A549 cells", "value": "approximately twice"},
      {"measurement": "IC50", "setting": "[2]; 72 h", "value": 2.14, "unit": "µM"},
      {"measurement": "Times more cytotoxic than the ligand", "setting": "[2]; L-Cu compared with ligand L", "value": "~17", "unit": "times"},
      {"measurement": "IC50", "setting": "[3]", "value": 2.32, "unit": "µM"}
    ]}
  ]
}
